Values after ≈ are worked out from the molar mass of the structure shown. Read-outs that look alike come from different tables or passages of the source.
Columns and labels:
[1] = test system: Serratia marcescens S18; assay: minimum inhibitory concentration, agar dilution assay; assay type: cell-based; conditions: S18, agar dilution, 35° C., 20 hours, read-out: minimum inhibitory concentration
How it was run: (§1)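 Two-fold compound dilutions were incorporated into heart infusion agar. Plates were inoculated with overnight Trypto-Soy broth cultures (35 °C, 18-20 h) diluted to about 10^8 cells/ml. After 20 h at 35 °C, MIC was taken as the lowest concentration with no growth.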

[2] = test system: Klebsiella pneumoniae K-13; assay: as above; assay type: cell-based; conditions: K13, agar dilution, 35° C., 20 hours, read-out: minimum inhibitory concentration
How it was run: as §1

[3] = test system: Sarcina lutea; assay: as above; assay type: cell-based; conditions: Micrococcus luteus; agar dilution, 35° C., 20 hours; read-out: minimum inhibitory concentration
How it was run: as §1

[4] = test system: Serratia marcescens T55; assay: as above; assay type: cell-based; conditions: T55, agar dilution, 35° C., 20 hours, read-out: minimum inhibitory concentration
How it was run: as §1

[5] = test system: Enterobacter sp. E8; assay: as above; assay type: cell-based; conditions: SP.E8, agar dilution, 35° C., 20 hours, read-out: minimum inhibitory concentration
How it was run: as §1

[6] = test system: Staphylococcus aureus Russell; assay: as above; assay type: cell-based; conditions: agar dilution, 35° C., 20 hours, read-out: minimum inhibitory concentration
How it was run: as §1

[7] = test system: Bacillus subtilis ATCC 6633; assay: as above; assay type: cell-based; conditions: ATCC6633, agar dilution, 35° C., 20 hours, read-out: minimum inhibitory concentration
How it was run: as §1

[8] = test system: Staphylococcus aureus FDA 209P; assay: as above; assay type: cell-based; conditions: FDA209P, agar dilution, 35° C., 20 hours, read-out: minimum inhibitory concentration
How it was run: as §1

[9] = test system: Pseudomonas aeruginosa NCTC10490; assay: as above; assay type: cell-based; conditions: NCTC10490, agar dilution, 35° C., 20 hours, read-out: minimum inhibitory concentration
How it was run: as §1

[10] = test system: Proteus vulgaris GN76; assay: as above; assay type: cell-based; conditions: GN76, agar dilution, 35° C., 20 hours, read-out: minimum inhibitory concentration
How it was run: as §1

[11] = test system: Enterobacter cloacae 45; assay: as above; assay type: cell-based; conditions: Enterobacter cloacae, 45; agar dilution, 35° C., 20 hours; read-out: minimum inhibitory concentration
How it was run: as §1

[12] = test system: Proteus rettgeri P7; assay: as above; assay type: cell-based; conditions: Providencia rettgeri, P7; agar dilution, 35° C., 20 hours; read-out: minimum inhibitory concentration
How it was run: as §1

[13] = test system: Escherichia coli RGN 823; assay: as above; assay type: cell-based; conditions: RGN823, agar dilution, 35° C., 20 hours, read-out: minimum inhibitory concentration
How it was run: as §1

[14] = test system: Providencia sp. P8; assay: as above; assay type: cell-based; conditions: SP.P8, agar dilution, 35° C., 20 hours, read-out: minimum inhibitory concentration
How it was run: as §1

[15] = test system: Alcaligenes faecalis A 1; assay: as above; assay type: cell-based; conditions: A1, agar dilution, 35° C., 20 hours, read-out: minimum inhibitory concentration
How it was run: as §1

[16] = test system: Pseudomonas aeruginosa IFO3445; assay: as above; assay type: cell-based; conditions: IFO3445, agar dilution, 35° C., 20 hours, read-out: minimum inhibitory concentration
How it was run: as §1

[17] = test system: Staphylococcus aureus Smith; assay: as above; assay type: cell-based; conditions: agar dilution, 35° C., 20 hours, read-out: minimum inhibitory concentration
How it was run: as §1

[18] = test system: Staphylococcus epidermidis; assay: as above; assay type: cell-based; conditions: agar dilution, 35° C., 20 hours, read-out: minimum inhibitory concentration
How it was run: as §1

[19] = test system: Citrobacter freundii GN 346; assay: as above; assay type: cell-based; conditions: GN346, agar dilution, 35° C., 20 hours, read-out: minimum inhibitory concentration
How it was run: as §1

[20] = test system: Proteus mirabilis P6; assay: as above; assay type: cell-based; conditions: P6, agar dilution, 35° C., 20 hours, read-out: minimum inhibitory concentration
How it was run: as §1

[21] = test system: Comamonas terrigena B-996; assay: as above; assay type: cell-based; conditions: B996, agar dilution, 35° C., 20 hours, read-out: minimum inhibitory concentration
How it was run: as §1

[22] = test system: Escherichia coli K-12; assay: as above; assay type: cell-based; conditions: read-out: minimum inhibitory concentration
How it was run: as §1

[23] = test system: Enterobacter aerogenes E19; assay: as above; assay type: cell-based; conditions: Klebsiella aerogenes, E19; agar dilution, 35° C., 20 hours; read-out: minimum inhibitory concentration
How it was run: as §1

[24] = test system: Proteus sp. P22; assay: as above; assay type: cell-based; conditions: agar dilution, 35° C., 20 hours; read-out: minimum inhibitory concentration
How it was run: as §1

[25] = test system: Gram-positive and Gram-negative bacteria; conditions: stated as known; cited from earlier work
[26] = Test for concentration in blood (plasma of mouse, bioassay); assay type: in vivo; conditions: sc, subcutaneous, 2 mg/mouse, average of five mice
Procedure: Typical species of the compounds of formula (I-d) were each administered subcutaneously to five mice in a dose of 2 mg. After 5 minutes from the administration, a small amount of blood was periodically drawn from the eyes of the mice into a heparinized capillary tube, and centrifuged. The concentration of the compound in the supernatant liquid (plasma) was determined by a bioassay method using Comamonas terrigena B-996.

[27] = test system: Staphylococcus aureus Smith strain; assay: Infection treating test; assay type: in vivo, Staphylococcus aureus (in ddy male mice); conditions: sc, 2 h, mice infected intraperitoneally, 5×10^5 cells per mouse, subcutaneous, two hours after infection, read-out: CD50 (the source's name)
Procedure: The in vivo activities of the compounds of formula (I-d) were determined by using mice (five per group, ddy male mice, Shizuoka) which had been intraperitoneally infected with Staphylococcus aureus Smith strain in an amount of 5×10^5 cells per mouse. Two hours after the infection, an injection containing a sodium salt of each of the compounds of formula (I-d) was subcutaneously administered to the mice.

[28] = solubility; assay type: physicochemical
[29] = test system: Alcaligenes faecalis B326; assay: minimum inhibitory concentration, agar dilution assay; assay type: cell-based; conditions: B326, agar dilution, 35° C., 20 hours, read-out: minimum inhibitory concentration
How it was run: as §1

Row | Compound | MIC [1] [µg/mL] | MIC [2] [µg/mL] | MIC [3] [µg/mL] | MIC [4] [µg/mL] | MIC [5] [µg/mL] | MIC [6] [µg/mL] | MIC [7] [µg/mL] | MIC [8] [µg/mL] | MIC [9] [µg/mL] | MIC [10] [µg/mL] | MIC [11] [µg/mL] | MIC [12] [µg/mL] | MIC [13] [µg/mL] | MIC [14] [µg/mL] | MIC [15] [µg/mL] | MIC [16] [µg/mL] | MIC [17] [µg/mL] | MIC [18] [µg/mL] | MIC [19] [µg/mL] | MIC [21] [µg/mL] | further results
1 | Cc1nnc(SCC2=C(C(=O)O)N3C(=O)[C@@H](NC(=O)Cn4cnnn4)[C@H]3SC2)s1 [CEZ, cephazolin, reference compound] | > 200 | 200 (≈ 440 µM) | 0.39 (≈ 0.858 µM) | > 200 | 3.13 (≈ 6.89 µM) | 0.2 (≈ 0.44 µM) | 0.2 (≈ 0.44 µM) | 0.1 (≈ 0.22 µM) | > 200 | > 200 | > 200 | > 200 | 200 (≈ 440 µM) | 100 (≈ 220 µM) | 3.13 (≈ 6.89 µM) | > 200 | 0.2 (≈ 0.44 µM) | 0.1 (≈ 0.22 µM) | > 200 | 0.2 (≈ 0.44 µM) | MIC [20]: 6.25 µg/mL (≈ 13.8 µM); MIC ([22]; K12, 20 h): 1.56 µg/mL (≈ 3.43 µM); MIC [23]: > 200 µg/mL; MIC [24]: > 200 µg/mL; effectiveness against Pseudomonas aeruginosa and Serratia, Proteus, Klebsiella, Enterobacter [25]: known to be effective against Pseudomonas aeruginosa and microorganisms of the genus Serratia, Proteus, Klebsiella, and Enterobacter
2 | CC(=O)NCCSC1=C(C(=O)O)N2C(=O)[C@H](C(C)O)[C@H]2C1 (stereo partly drawn) [PS-3A . Na] | – | – | – | – | – | – | – | – | – | – | – | – | – | – | – | – | – | – | – | – | half-life ([26]; read-out: Half period): 12 min; Cmax ([26]; read-out: Maximum concentration): 52 µg/mL; ED50 [27]: 4 mg/kg
3 | CC(=O)NCCSC1=C(C(=O)O)N2C(=O)[C@H](C(C)O)[C@H]2C1 (stereo partly drawn) [PS-3A, 3-(2-acetamidoethylthio)-6-(1-hydroxyethyl)-7-oxo-1-azabicyclo[3.2.0]hept-2-ene-2-carboxylic acid, reference compound] | 10 (≈ 31.8 µM) | 10 (≈ 31.8 µM) | 0.63 (≈ 2 µM) | 20.1 (≈ 63.9 µM) | 5 (≈ 15.9 µM) | 1.25 (≈ 3.98 µM) | 1.25 (≈ 3.98 µM) | 0.31 (≈ 0.986 µM) | 20.1 (≈ 63.9 µM) | 20.1 (≈ 63.9 µM) | 10 (≈ 31.8 µM) | 20.1 (≈ 63.9 µM) | 5 (≈ 15.9 µM) | 5 (≈ 15.9 µM) | 1.25 (≈ 3.98 µM) | 20.1 (≈ 63.9 µM) | 1.25 (≈ 3.98 µM) | 2.5 (≈ 7.95 µM) | 10 (≈ 31.8 µM) | 0.08 (≈ 0.254 µM) | Solubility in acetone ([28]; acetone): substantially insoluble in acetone; Solubility in water ([28]; water): Readily soluble in water; MIC [20]: 20.1 µg/mL (≈ 63.9 µM); MIC ([22]; K12, agar dilution, 35° C., 20 hours): 2.5 µg/mL (≈ 7.95 µM); MIC [23]: 20.1 µg/mL (≈ 63.9 µM); MIC [24]: 20.1 µg/mL (≈ 63.9 µM)
4 | CCCCSC1=C(C(=O)O)N2C(=O)C(C(C)C)C2C1 (stereo not drawn) [R1 CH3, R21 (CH2CH3)3] | – | – | 7.5 (≈ 26.5 µM) | – | – | – | 15 (≈ 52.9 µM) | 0.48 (≈ 1.69 µM) | – | – | – | – | – | – | – | – | – | 0.12 (≈ 0.423 µM) | – | 0.48 (≈ 1.69 µM) | MIC [29]: 20 µg/mL (≈ 70.6 µM)
